# Assay results: patent US5854081A, “Stable expression of human A2B adenosine receptors, and assays employing the same” (The University of Patent Foundation, priority 1996, dated 1998)
# Where two headings read alike, the source gives them in different places.
# Legend:
# [1] = molecular target: T1, recombinant human H/F-A1 adenosine receptor (Homo sapiens, UniProt P30542); test: Competition for radioligand binding, H/F-A1; details: competition with 1 nM ^125 I-ABA
# T1 construct: expressed in transfected cells
# T1 sequence (P30542 with tags, fused parts or gaps): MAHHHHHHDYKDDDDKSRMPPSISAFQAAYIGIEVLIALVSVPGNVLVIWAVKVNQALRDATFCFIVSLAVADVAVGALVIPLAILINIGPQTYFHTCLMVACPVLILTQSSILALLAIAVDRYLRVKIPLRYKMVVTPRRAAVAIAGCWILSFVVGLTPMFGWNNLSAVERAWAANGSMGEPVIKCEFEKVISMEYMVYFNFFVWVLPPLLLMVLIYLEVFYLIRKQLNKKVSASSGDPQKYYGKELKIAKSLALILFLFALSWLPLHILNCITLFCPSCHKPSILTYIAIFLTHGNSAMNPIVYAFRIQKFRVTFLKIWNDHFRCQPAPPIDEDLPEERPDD
# Procedure: (§1) The experiments were performed in triplicate with 10 μg membrane protein in a total volume of 0.1 mL with 0.5 U/mL adenosine deaminase, with and without 5 mM MgCl2 for agonist and antagonist binding, respectively. […] Bmax and KD were calculated by nonlinear least squares interpolation for single or two-site binding models. K1 values for different compounds were derived from IC50 values. Data from replicate experiments were tabulated as means ± SEM.
# (§2) Twelve compounds were evaluated to determine their potencies to compete for radioligand binding to native- and H/F-A1 or A2A receptors.
# [2] = molecular target: T2, recombinant human native-A1 adenosine receptor (Homo sapiens, UniProt P30542); test: Competition for radioligand binding, native-A1; set-up: expressed in transfected cells; details: competition with 1 nM ^125 I-ABA
# T2 sequence (P30542 1-326): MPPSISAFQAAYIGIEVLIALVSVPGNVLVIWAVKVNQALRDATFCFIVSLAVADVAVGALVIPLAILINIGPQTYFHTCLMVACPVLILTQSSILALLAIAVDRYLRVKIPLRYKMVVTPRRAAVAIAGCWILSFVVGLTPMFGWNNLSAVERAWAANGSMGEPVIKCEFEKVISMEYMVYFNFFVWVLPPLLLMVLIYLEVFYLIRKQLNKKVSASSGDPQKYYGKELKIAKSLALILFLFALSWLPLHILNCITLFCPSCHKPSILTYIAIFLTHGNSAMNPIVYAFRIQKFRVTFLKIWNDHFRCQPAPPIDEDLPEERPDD
# Procedure: as §1, §2
# [3] = molecular target: T1, recombinant human H/F-A1 adenosine receptor; test: Saturation radioligand binding, H/F-A1 (CHO-K1 membranes)
# [4] = molecular target: T2, recombinant human native-A1 adenosine receptor; test: Saturation radioligand binding, native-A1 (CHO-K1 membranes)
# [5] = test system: rat A3AR
# [6] = test system: sheep A3AR
# [7] = molecular target: recombinant human H/F-A2A adenosine receptor (Homo sapiens, UniProt P29274); test: Competition for radioligand binding, H/F-A2A
# Chain of recombinant human H/F-A2A adenosine receptor (P29274 with tags, fused parts or gaps): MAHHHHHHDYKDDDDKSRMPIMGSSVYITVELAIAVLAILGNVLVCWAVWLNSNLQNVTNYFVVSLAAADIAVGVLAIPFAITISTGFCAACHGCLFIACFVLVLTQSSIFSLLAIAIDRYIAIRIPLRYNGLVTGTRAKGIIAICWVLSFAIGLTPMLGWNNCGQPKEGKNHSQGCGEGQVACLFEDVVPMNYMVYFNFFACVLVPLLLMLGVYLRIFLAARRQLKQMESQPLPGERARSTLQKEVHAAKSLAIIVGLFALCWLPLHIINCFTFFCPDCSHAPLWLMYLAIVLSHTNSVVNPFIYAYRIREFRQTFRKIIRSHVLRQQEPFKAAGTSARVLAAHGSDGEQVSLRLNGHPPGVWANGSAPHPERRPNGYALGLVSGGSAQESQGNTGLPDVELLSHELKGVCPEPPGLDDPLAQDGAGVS
# [8] = molecular target: recombinant human native-A2A adenosine receptor (Homo sapiens, UniProt P29274); test: Competition for radioligand binding, native-A2A
# Chain of recombinant human native-A2A adenosine receptor (P29274 whole entry): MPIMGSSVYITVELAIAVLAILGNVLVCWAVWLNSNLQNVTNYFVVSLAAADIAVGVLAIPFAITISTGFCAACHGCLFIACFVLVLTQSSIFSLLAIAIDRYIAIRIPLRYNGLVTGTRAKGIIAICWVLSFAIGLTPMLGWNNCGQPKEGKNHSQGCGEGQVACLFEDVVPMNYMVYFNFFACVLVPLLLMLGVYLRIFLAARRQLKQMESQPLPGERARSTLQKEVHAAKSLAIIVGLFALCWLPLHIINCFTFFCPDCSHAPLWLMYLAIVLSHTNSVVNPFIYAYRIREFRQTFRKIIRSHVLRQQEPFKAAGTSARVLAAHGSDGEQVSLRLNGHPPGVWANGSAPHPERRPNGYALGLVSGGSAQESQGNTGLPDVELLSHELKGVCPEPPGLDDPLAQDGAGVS
# [9] = Block of ^125 I-ABA binding to lung membranes
# [10] = molecular target: rat striatal A2A receptors; details: cited from earlier work
# [11] = molecular target: T3, A2B receptors (Homo sapiens, UniProt P29275); test: Inhibition of NECA-stimulated cyclic AMP accumulation in A2B transfected HEK-293 cells (Schild analysis); assay type: cell-based; details: read-out: pA2 (antagonism, Schild analysis) (converted)
# T3 construct: expressed in transfected cells; host or cells: HEK-293
# T3 sequence (P29275 1-332): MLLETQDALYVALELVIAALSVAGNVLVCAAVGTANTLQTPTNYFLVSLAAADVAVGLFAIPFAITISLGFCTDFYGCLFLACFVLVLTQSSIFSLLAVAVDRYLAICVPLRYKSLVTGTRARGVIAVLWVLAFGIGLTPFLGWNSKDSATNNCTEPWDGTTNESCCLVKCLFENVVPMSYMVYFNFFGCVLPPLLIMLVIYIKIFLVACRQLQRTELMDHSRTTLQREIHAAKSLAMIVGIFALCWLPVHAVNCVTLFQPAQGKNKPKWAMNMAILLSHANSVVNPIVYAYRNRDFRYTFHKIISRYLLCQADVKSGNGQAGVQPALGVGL
# From the text: The radioligands used to label the A1 and A2A receptors are commonly used and are commercially available. However, there are no reports in the literature of radioligands useful for detecting A2B receptors. […] Based on this observation [^3 H]DPX was custom triiated by NEN.
# [12] = test system: native A2A receptors; test: Effect of GTPγS on agonist radioligand binding to native A2A; set-up: species or system human; details: Sf9 cell membranes
# [13] = test system: H/F-A1 receptors
# [14] = test system: H/F-A1 adenosine receptors; test: Inhibition of cyclic AMP accumulation, CHO-K1 cells with H/F-A1; assay type: cell-based, human
# Procedure: (§3) CHO-K1 cells were incubated without or with 100 mg/mL pertussis toxin. […] Five-hundred microliters of the supernatants were removed, acetylated, and assayed for cyclic AMP by automated radioimmunoassay.
# [15] = test system: untransfected CHO-K1 cells; test: Cyclic AMP levels in untransfected CHO-K1 cells; assay type: cell-based; details: concentrations up to 1 μM
# Procedure: as §3
# [16] = molecular target: T4, A2B adenosine receptors (Homo sapiens, UniProt P29275); test: A2B radioligand binding assay; details: FIG. 6
# T4 construct: made in house
# T4 sequence (P29275 1-332): T3 sequence (P29275 1-332)
# [17] = test system: A3 AR; test: A3 AR selectivity of radioligand; assay type: binding
# From the text: These receptors can be labeled nonselectively by agonist radioligands that also label A1 AR.
# [18] = test system: A3 AR; test: Activation of A3 AR; details: >μM levels
# [19] = ^125 I-ABA: high affinity sites
# [20] = competition with 70 nM [^3 H]NECA
# [21] = read-out: K1, competition with 70 nM [^3 H]NECA
structure (smiles),measurement,setting,value
"Cn1c(=O)c2[nH]c(-c3ccc(S(=O)(=O)O)cc3)nc2n(C)c1=O [8-SPT, 8-P-sulfophenyltheophylline]",NH (Hill coefficient),[1],0.84
same,NH (Hill coefficient),[2],0.87 ± 0.05
Nc1ccc(CNc2ncnc3c2ncn3[C@@H]2O[C@H](CO)[C@@H](O)[C@H]2O)cc1I [^125 I-ABA],Kd,[3]; [19],0.98 ± 0.16 nM
same,Kd,[4]; [19],102 ± 0.03 nM
Cn1c(=O)c2[nH]cnc2n(C)c1=O [theophylline],affinity for A3 AR,[5],very low affinity
same,affinity for A3 AR,[6],very low affinity
"CCCn1c(=O)c2nc(-c3ccc(OCC(=O)O)cc3)[nH]c2n(Cc2ccc(N)c(I)c2)c1=O [1ABOPX, 3-iodoaminobenzyl-1-propyl-8-p-(oxyacetate)-phenylxanthine]",NH (Hill coefficient),[7]; [20],0.94 ± 0.14
same,Ki,[7]; [21],22 ± 3.6 nM
same,NH (Hill coefficient),[8]; [20],0.84 ± 0.17
same,Ki,[8]; [21],23.7 ± 7.5 nM
CC(C)N(C)c1nc2c(N[C@@H]3CC4CC3CC4O)ncnc2n1C (stereo partly shown) [WRC-0571],block of ^125 I-ABA binding to lung membranes,[9]; 1 μM,not blocked
CCNC(=O)[C@H]1O[C@@H](n2cnc3c(N)nc(NCCc4ccc(CCC(=O)O)cc4)nc32)[C@H](O)[C@@H]1O [[^3 H]CGS21680],Kd,[10]; G protein coupled rat striatal A2A receptors,3.9 nM
same,Kd,[10]; G protein uncoupled rat striatal A2A receptors,51 nM
"CCn1c(=O)c2[nH]c(-c3ccccc3)nc2n(CC)c1=O [1,3-diethyl-8-phenylxanthine (DPX), 1,3-diethyl-8-phenylxanthine]",Kb,[11],30 nM
Nc1nc2c(ncn2[C@@H]2O[C@H](COP(=O)(O)OP(=O)(O)OP(O)(O)=S)[C@@H](O)[C@H]2O)c(=O)[nH]1 [GTPγS],reduction of [^3 H]CGS21680 / [^3 H]NECA binding by GTPγS,[12],reduced only slightly
same,reduction in number of high affinity agonist (^125 I-ABA) binding sites by GTPγS,[13],large reduction
"OC[C@H]1O[C@@H](n2cnc3c(NC4CCCC4)ncnc32)[C@H](O)[C@@H]1O [CPA, N^6 -cyclopentyladenosine]",NH (Hill coefficient),[1],0.79
same,inhibition of cyclic AMP accumulation,[14],potently inhibited
same,inhibition of cyclic AMP accumulation after pertussis toxin,[14]; preincubated with pertussis toxin,abolished
same,effect on cyclic AMP levels,[15],no effect
same,NH (Hill coefficient),[2],0.93 ± 0.16
CCn1c(=O)c2[nH]c(-c3ccccc3)nc2n(CC)c1=O [[^3 H]DPX],detection of A2B receptors by radioligand binding,[16],first successful detection of A2B adenosine receptors by radioligand binding
"CCCn1c(=O)c2[nH]c(-c3ccc(OCC(=O)NCCN)cc3)nc2n(CCC)c1=O [XAC, xanthine amino congenen]",NH (Hill coefficient),[1],0.96
same,NH (Hill coefficient),[2],1.12 ± 0.11
"CCNC(=O)[C@H]1O[C@@H](n2cnc3c(N)ncnc32)[C@H](O)[C@@H]1O [NECA, 5'-N-ethylcarboxamidondenosine]",NH (Hill coefficient),[1],0.97
same,NH (Hill coefficient),[2],0.95 ± 0.09
CCCn1c(=O)c2[nH]c(-c3ccc(OCC(=O)O)cc3)nc2n(Cc2ccc(N)c([125I])c2)c1=O [^125 I-ABOPX],selectivity of radioligand,[17],A3 AR-selective
CNC(=O)[C@H]1O[C@@H](n2cnc3c(NCc4cccc(I)c4)ncnc32)[C@H](O)[C@@H]1O [IB-MECA],block of ^125 I-ABA binding to lung membranes,[9]; concentration not given,blocked
"CCNC(=O)[C@H]1O[C@@H](n2cnc3c(N)nc(NCCc4ccc(CCC(=O)O)cc4)nc32)[C@H](O)[C@@H]1O [CGS21680, 2-(r-(s-carboxyethyl)phen-ethylamino)-5'-N-ethylcarboxamidondenosine]",activation of A3 AR,[18],activate A3 AR
Nc1ccc(CNc2ncnc3c2ncn3[C@@H]2O[C@H](CO)[C@@H](O)[C@H]2O)cc1[125I] [^125 I-ABA],Bmax,[3],3.3 ± 0.5 pmol/mg protein
same,Bmax,[4],3.5 ± 0.8 pmol/mg protein
